Reference: patent US4068070A, “α-Cyanoamine compounds and a process for producing the same” (Fuji Chemical Industry Co., Ltd., priority 1974, dated 1978)

Columns and labels:
Assay type in all cases: in vivo, mongrel adult dogs
[1] = system: arterial mean blood pressure; test: Effects on arterial mean blood pressure
Procedure: (§1) All experiments were made on male and female thoractomized mongrel adult dogs weighing about 10 kg. under anesthesia with pentobarbital sodium. Compounds A, D, E and F were suspended in 0.2% CMC solution, Compound B dissolved in hydrochloric acid solution (pH 6), and Compound C and active placebo being dissolved in physiological saline solution. Animals were administered the drug intravenously on brachiuma with either test compound or active placebo.
(§2) Arterial blood pressure was measured by pressure transducer (Nippon Koden MPU-0.5) connected with the cannula inserted from exposed carotid artery into aorta. Aortic blood flow was determined by means of electromagnetic flow meter (Nippon Koden MF-5) mounted at the origin of the aorta. Coronary sinus out flow and coronary sinus oxygen tension were assessed by means of electromagnetic flow meter (Nippon Koden MF-5) and P02 macro electrode (Beokmann Moder 160-C), respectively using Morawitz cannulization technique. Heart rate was measured by cardiotachometer (Nippon Koden RT-2) synchronized with systolic blood pressure of aorta.

aortic blood flow = test: Effects on aortic blood flow
Procedure: as §1, §2

coronary sinus out flow = test: Effects on coronary sinus out flow
Procedure: as §1, §2

[2] = system: coronary sinus oxygen tension; test: Effects on coronary sinus oxygen tension
Procedure: as §1, §2

heart rate = test: Effects on heart rate
Procedure: as §1, §2

In the case of `CCOC(=O)N1CCN(C(C#N)c2ccc(OC)c(OC)c2)CC1` (centres unmarked) [Compound A], the “Changes (%) of basal values, arterial mean blood pressure” value ([1]; 2.0 mg/kg i.v., 1 min) is reported as -1.5%, the “Changes (%) of basal values, arterial mean blood pressure” value ([1]; 2.0 mg/kg i.v., 5 min) is reported as -2.6% and the “Changes (%) of basal values, arterial mean blood pressure” value ([1]; 2.0 mg/kg i.v., 10 min) is reported as -4.2%. The “Changes (%) of basal values, arterial mean blood pressure” value ([1]; 2.0 mg/kg i.v., 20 min) was -3.8%, the “Changes (%) of basal values, arterial mean blood pressure” value ([1]; 2.0 mg/kg i.v., 30 min) was -4.5% and the “Changes (%) of basal values, arterial mean blood pressure” value ([1]; 2.0 mg/kg i.v., imm.) was -4.0%. The “Changes (%) of basal values, arterial mean blood pressure” value ([1]; 6.0 mg/kg i.v., 1 min) was -3.4%, the “Changes (%) of basal values, arterial mean blood pressure” value ([1]; 6.0 mg/kg i.v., 5 min) was -5.2% and the “Changes (%) of basal values, arterial mean blood pressure” value ([1]; 6.0 mg/kg i.v., 10 min) was -6.0%. For the same compound, the “Changes (%) of basal values, arterial mean blood pressure” value ([1]; 6.0 mg/kg i.v., 20 min) was -5.2%, the “Changes (%) of basal values, arterial mean blood pressure” value ([1]; 6.0 mg/kg i.v., 30 min) was -3.0% and the “Changes (%) of basal values, arterial mean blood pressure” value ([1]; 6.0 mg/kg i.v., imm.) was -4.2%. For the same compound, the “Changes (%) of basal values, arterial mean blood pressure” value ([1]; 20.0 mg/kg i.v., 1 min) was -16.9%, the “Changes (%) of basal values, arterial mean blood pressure” value ([1]; 20.0 mg/kg i.v., 5 min) was -16.9% and the “Changes (%) of basal values, arterial mean blood pressure” value ([1]; 20.0 mg/kg i.v., 10 min) was -16.0%. For the same compound, the “Changes (%) of basal values, arterial mean blood pressure” value ([1]; 20.0 mg/kg i.v., 20 min) was -17.0%, the “Changes (%) of basal values, arterial mean blood pressure” value ([1]; 20.0 mg/kg i.v., 30 min) was -14.9% and the “Changes (%) of basal values, arterial mean blood pressure” value ([1]; 20.0 mg/kg i.v., imm.) was -14.5%. For the same compound, the “Effects on arterial mean blood pressure (in words)” value ([1]; i.v., anesthetized dogs) was “hypotensive effects being proportioned to their doses which were of long duration”, the “Changes (%) of basal values, aortic blood flow” value (from here on “Changes (%) … aortic blood flow”) (aortic blood flow; 2.0 mg/kg i.v., 1 min) was “+4.3%” and the “Changes (%) … aortic blood flow” value (aortic blood flow; 2.0 mg/kg i.v., 5 min) was “+3.7%”. For the same compound, the “Changes (%) … aortic blood flow” value (aortic blood flow; 2.0 mg/kg i.v., 10 min) was “+2.3%”, the “Changes (%) … aortic blood flow” value (aortic blood flow; 2.0 mg/kg i.v., 20 min) was “+1.0%” and the “Changes (%) … aortic blood flow” value (aortic blood flow; 2.0 mg/kg i.v., 30 min) was “+1.0%”. For the same compound, the “Changes (%) … aortic blood flow” value (aortic blood flow; 2.0 mg/kg i.v., imm.) was “+0.5%”, the “Changes (%) … aortic blood flow” value (aortic blood flow; 6.0 mg/kg i.v., 1 min) was “+5.8%” and the “Changes (%) … aortic blood flow” value (aortic blood flow; 6.0 mg/kg i.v., 5 min) was “+3.7%”. The “Changes (%) … aortic blood flow” value (aortic blood flow; 6.0 mg/kg i.v., 10 min) was “+0.1%”, the “Changes (%) … aortic blood flow” value (aortic blood flow; 6.0 mg/kg i.v., 20 min) was -0.2% and the “Changes (%) … aortic blood flow” value (aortic blood flow; 6.0 mg/kg i.v., 30 min) was “+0.2%”. The “Changes (%) … aortic blood flow” value (aortic blood flow; 6.0 mg/kg i.v., imm.) was “+4.3%”, the “Changes (%) … aortic blood flow” value (aortic blood flow; 20.0 mg/kg i.v., 1 min) was “+7.3%” and the “Changes (%) … aortic blood flow” value (aortic blood flow; 20.0 mg/kg i.v., 5 min) was “+10.2%”. The “Changes (%) … aortic blood flow” value (aortic blood flow; 20.0 mg/kg i.v., 10 min) was “+8.0%”, the “Changes (%) … aortic blood flow” value (aortic blood flow; 20.0 mg/kg i.v., 20 min) was “+3.3%” and the “Changes (%) … aortic blood flow” value (aortic blood flow; 20.0 mg/kg i.v., 30 min) was “+1.0%”. For the same compound, the “Changes (%) … aortic blood flow” value (aortic blood flow; 20.0 mg/kg i.v., imm.) was “+6.1%”, the “increased aortic blood flow” value (aortic blood flow; during the course of observation period, i.v.) was 2-8% and the “Changes(%) of basal values, coronary sinus out flow” value (coronary sinus out flow; 2.0 mg/kg i.v., 1 min) was “+7.6%”. For the same compound, the “Changes(%) of basal values, coronary sinus out flow” value (coronary sinus out flow; 2.0 mg/kg i.v., 5 min) was “+5.4%”, the “Changes(%) of basal values, coronary sinus out flow” value (coronary sinus out flow; 2.0 mg/kg i.v., 10 min) was “+4.7%” and the “Changes(%) of basal values, coronary sinus out flow” value (coronary sinus out flow; 2.0 mg/kg i.v., 20 min) was “+4.0%”. The “Changes(%) of basal values, coronary sinus out flow” value (coronary sinus out flow; 2.0 mg/kg i.v., 30 min) was “+3.5%”, the “Changes(%) of basal values, coronary sinus out flow” value (coronary sinus out flow; 2.0 mg/kg i.v., imm.) was “+10.9%” and the “Changes(%) of basal values, coronary sinus out flow” value (coronary sinus out flow; 6.0 mg/kg i.v., 1 min) was “+16.6%”. The “Changes(%) of basal values, coronary sinus out flow” value (coronary sinus out flow; 6.0 mg/kg i.v., 5 min) was “+17.0%”, the “Changes(%) of basal values, coronary sinus out flow” value (coronary sinus out flow; 6.0 mg/kg i.v., 10 min) was “+18.0%” and the “Changes(%) of basal values, coronary sinus out flow” value (coronary sinus out flow; 6.0 mg/kg i.v., 20 min) was “+8.5%”. For the same compound, the “Changes(%) of basal values, coronary sinus out flow” value (coronary sinus out flow; 6.0 mg/kg i.v., 30 min) was “+8.0%”, the “Changes(%) of basal values, coronary sinus out flow” value (coronary sinus out flow; 6.0 mg/kg i.v., imm.) was “+12.0%” and the “Changes(%) of basal values, coronary sinus out flow” value (coronary sinus out flow; 20.0 mg/kg i.v., 1 min) was “+34.3%”. The “Changes(%) of basal values, coronary sinus out flow” value (coronary sinus out flow; 20.0 mg/kg i.v., 5 min) was “+48.3%”, the “Changes(%) of basal values, coronary sinus out flow” value (coronary sinus out flow; 20.0 mg/kg i.v., 10 min) was “+47.1%” and the “Changes(%) of basal values, coronary sinus out flow” value (coronary sinus out flow; 20.0 mg/kg i.v., 20 min) was “+30.0%”. The “Changes(%) of basal values, coronary sinus out flow” value (coronary sinus out flow; 20.0 mg/kg i.v., 30 min) was “+11.8%”, the “Changes(%) of basal values, coronary sinus out flow” value (coronary sinus out flow; 20.0 mg/kg i.v., imm.) was “+18.5%” and the “Effects on coronary sinus out flow (in words)” value (coronary sinus out flow; i.v., anesthetized dogs) was “a marked increasing effect on coronary sinus out flow, which was proportioned to doses thereof and of long duration”. The “Changes(%) of basal values, coronary sinus oxygen tension” value ([2]; 2.0 mg/kg i.v., 1 min) was “+15.2%”, the “Changes(%) of basal values, coronary sinus oxygen tension” value ([2]; 2.0 mg/kg i.v., 5 min) was “+13.8%” and the “Changes(%) of basal values, coronary sinus oxygen tension” value ([2]; 2.0 mg/kg i.v., 10 min) was “+12.5%”. The “Changes(%) of basal values, coronary sinus oxygen tension” value ([2]; 2.0 mg/kg i.v., 20 min) was “+12.0%”, the “Changes(%) of basal values, coronary sinus oxygen tension” value ([2]; 2.0 mg/kg i.v., 30 min) was “+12.0%” and the “Changes(%) of basal values, coronary sinus oxygen tension” value ([2]; 2.0 mg/kg i.v., imm.) was “+11.2%”. The “Changes(%) of basal values, coronary sinus oxygen tension” value ([2]; 6.0 mg/kg i.v., 1 min) was “+27.5%”, the “Changes(%) of basal values, coronary sinus oxygen tension” value ([2]; 6.0 mg/kg i.v., 5 min) was “+27.0%” and the “Changes(%) of basal values, coronary sinus oxygen tension” value ([2]; 6.0 mg/kg i.v., 10 min) was “+30.0%”. The “Changes(%) of basal values, coronary sinus oxygen tension” value ([2]; 6.0 mg/kg i.v., 20 min) was “+19.6%”, the “Changes(%) of basal values, coronary sinus oxygen tension” value ([2]; 6.0 mg/kg i.v., 30 min) was “+13.5%” and the “Changes(%) of basal values, coronary sinus oxygen tension” value ([2]; 6.0 mg/kg i.v., imm.) was “+18.0%”. The “Changes(%) of basal values, coronary sinus oxygen tension” value ([2]; 20.0 mg/kg i.v., 1 min) was “+47.2%”, the “Changes(%) of basal values, coronary sinus oxygen tension” value ([2]; 20.0 mg/kg i.v., 5 min) was “+39.0%” and the “Changes(%) of basal values, coronary sinus oxygen tension” value ([2]; 20.0 mg/kg i.v., 10 min) was “+91.7%”. For the same compound, the “Changes(%) of basal values, coronary sinus oxygen tension” value ([2]; 20.0 mg/kg i.v., 20 min) was “+72.5%”, the “Changes(%) of basal values, coronary sinus oxygen tension” value ([2]; 20.0 mg/kg i.v., 30 min) was “+56.9%” and the “Changes(%) of basal values, coronary sinus oxygen tension” value ([2]; 20.0 mg/kg i.v., imm.) was “+31.6%”. The “Effects on coronary sinus oxygen tension (in words)” value ([2]; i.v., anesthetized dogs) was “a significant increase in coronary sinus oxygen tension, effect of which was of long duration”, the “Changes(%) of basal values, heart rate” value (heart rate; 2.0 mg/kg i.v., 1 min) was -4.7% and the “Changes(%) of basal values, heart rate” value (heart rate; 2.0 mg/kg i.v., 5 min) was -0.6%. For the same compound, the “Changes(%) of basal values, heart rate” value (heart rate; 2.0 mg/kg i.v., 10 min) was -0.4%, the “Changes(%) of basal values, heart rate” value (heart rate; 2.0 mg/kg i.v., 20 min) was 0% and the “Changes(%) of basal values, heart rate” value (heart rate; 2.0 mg/kg i.v., 30 min) was 0%. The “Changes(%) of basal values, heart rate” value (heart rate; 2.0 mg/kg i.v., imm.) was -5.2%, the “Changes(%) of basal values, heart rate” value (heart rate; 6.0 mg/kg i.v., 1 min) was -3.9% and the “Changes(%) of basal values, heart rate” value (heart rate; 6.0 mg/kg i.v., 5 min) was -2.3%. The “Changes(%) of basal values, heart rate” value (heart rate; 6.0 mg/kg i.v., 10 min) was -0.9%, the “Changes(%) of basal values, heart rate” value (heart rate; 6.0 mg/kg i.v., 20 min) was “+1.0%” and the “Changes(%) of basal values, heart rate” value (heart rate; 6.0 mg/kg i.v., 30 min) was “+1.0%”. The “Changes(%) of basal values, heart rate” value (heart rate; 6.0 mg/kg i.v., imm.) was -5.0%, the “Changes(%) of basal values, heart rate” value (heart rate; 20.0 mg/kg i.v., 1 min) was “+1.5%” and the “Changes(%) of basal values, heart rate” value (heart rate; 20.0 mg/kg i.v., 5 min) was 0%. For the same compound, the “Changes(%) of basal values, heart rate” value (heart rate; 20.0 mg/kg i.v., 10 min) was -1.8%, the “Changes(%) of basal values, heart rate” value (heart rate; 20.0 mg/kg i.v., 20 min) was -6.0% and the “Changes(%) of basal values, heart rate” value (heart rate; 20.0 mg/kg i.v., 30 min) was -6.7%. For the same compound, the “Changes(%) of basal values, heart rate” value (heart rate; 20.0 mg/kg i.v., imm.) was -7.0% and the “Effects on heart rate (in words)” value (heart rate; i.v., anesthetized dogs) was “a slight negative chronotropic effect”.
